Values of other authors in PMC5862788 (Antiviral therapy, 2018).
Read-outs that look alike come from different tables or passages of the source.

System: HCV

COC(=O)N[C@H](C(=O)N1CCC[C@H]1c1nc(-c2ccc(-c3ccc(-c4c[nH]c([C@@H]5CCCN5C(=O)[C@@H](NC(=O)OC)C(C)C)n4)cc3)cc2)c[nH]1)C(C)C [daclatasvir]
predicted effectiveness ε (200 mg tid): 0.996

CC(C)(C)OC(=O)N[C@H]1CCCCC/C=C\[C@@H]2C[C@@]2(C(=O)NS(=O)(=O)C2CC2)NC(=O)[C@@H]2C[C@@H](OC(=O)N3Cc4cccc(F)c4C3)CN2C1=O [danoprevir]
predicted effectiveness ε (100 mg bid): 0.976 | predicted effectiveness ε (monotherapy, 200 mg tid and 300 mg bid): 0.992

CC(C)C(=O)OC[C@H]1O[C@@H](n2ccc(N)nc2=O)[C@](C)(F)[C@@H]1OC(=O)C(C)C [mericitabine]
predicted effectiveness ε (1500 mg bid): 0.997
